Calls of active or inactive are those of the source. No cut-off for these calls is given here.
Tests used:
CCRF-CEM [1] = assay: Induction of cell cycle arrest in human CEM cells assessed as increase in accumulation of cells at S-phase after 24 hrs by flow cytometric analysis relative to untreated control; type: functional, cell-based
CCRF-CEM [2] = assay: Cytotoxicity against human CEM cells assessed as viable cells after 72 hrs by calcein AM assay; type: functional, cell-based
HeLa = assay: Cytotoxicity against human HeLa cells assessed as viable cells after 72 hrs by calcein AM assay; type: functional, cell-based
CCRF-CEM [3] = assay: Induction of cell cycle arrest in human CEM cells assessed as reduction in accumulation of cells at G0/G1-phase after 24 hrs by flow cytometric analysis relative to untreated control; type: functional, cell-based
CCRF-CEM [4] = assay: Induction of apoptosis in human CEM cells assessed as increase in caspase-7 activity using Ac-DEVD-AMC as a substrate at 2 uM after 24 hrs by fluorescence microplate reader assay relative to untreated control; type: functional
CCRF-CEM [5] = assay: Induction of apoptosis in human CEM cells assessed as increase in Bcl-2 protein level after 24 hrs by Western blot analysis relative to untreated control; type: functional, cell-based
CCRF-CEM [6] = assay: Induction of apoptosis in human CEM cells assessed as increase in caspase-3 activity using Ac-DEVD-AMC as a substrate at 1 uM after 24 hrs by fluorescence microplate reader assay relative to untreated control; type: functional
[7] = Cytotoxicity against human T98 cells assessed as viable cells after 72 hrs by calcein AM assay; type: functional, cell-based; conditions: T98, 72 h
HCT-116 = assay: Cytotoxicity against human HCT116 assessed as viable cells after 72 hrs by calcein AM assay; type: functional, cell-based; conditions: HCT-116, 72 h
MCF7 = assay: Cytotoxicity against human MCF7 cells assessed as viable cells after 72 hrs by calcein AM assay; type: functional, cell-based; conditions: MCF7, 72 h
CCRF-CEM [8] = assay: Induction of apoptosis in human CEM cells assessed as increase in caspase-7 activity using Ac-DEVD-AMC as a substrate at 1 uM after 24 hrs by fluorescence microplate reader assay relative to untreated control; type: functional
HOS = assay: Cytotoxicity against human HOS cells assessed as viable cells after 72 hrs by calcein AM assay; type: functional, cell-based
CCRF-CEM [9] = assay: Induction of apoptosis in human CEM cells assessed as accumulation of caspase-3 after 24 hrs by Western blot analysis relative to untreated control; type: functional, cell-based
CCRF-CEM [10] = assay: Induction of apoptosis in human CEM cells assessed as effect on […] protein expression at 1 to 5 uM after 24 hrs by Western blot analysis relative to untreated control; type: functional, cell-based
G-361 = assay: Cytotoxicity against human G361 cells assessed as viable cells after 72 hrs by calcein AM assay; type: functional, cell-based; conditions: G-361, 72 h
BJ = assay: Cytotoxicity against human BJ cells assessed as viable cells after 72 hrs by calcein AM assay; type: cell-based
CCRF-CEM [11] = assay: Induction of apoptosis in human CEM cells assessed as effect on retinoblastoma protein expression at 1 to 5 uM after 24 hrs by Western blot analysis relative to untreated control; type: functional, cell-based
CCRF-CEM [12] = assay: Induction of cell cycle arrest in human CEM cells assessed as increase in accumulation of cells at G2/M-phase after 24 hrs by flow cytometric analysis relative to untreated control; type: functional, cell-based
CCRF-CEM [13] = assay: Induction of apoptosis in human CEM cells assessed as increase in caspase-3 activity using Ac-DEVD-AMC as a substrate at 2 uM after 24 hrs by fluorescence microplate reader assay relative to untreated control; type: functional
CCRF-CEM [14] = assay: Induction of apoptosis in human CEM cells assessed as increase in caspase-7 activity using Ac-DEVD-AMC as a substrate at 5 uM after 24 hrs by fluorescence microplate reader assay relative to untreated control; type: functional
CCRF-CEM [15] = assay: Induction of apoptosis in human CEM cells assessed as increase in amount of DNA at subG1-phase after 24 hrs by flow cytometric analysis relative to untreated control; type: functional, cell-based
A549 = assay: Cytotoxicity against human A549 cells assessed as viable cells after 72 hrs by calcein AM assay; type: functional, cell-based; conditions: A549, 72 h
CCRF-CEM [16] = assay: Induction of apoptosis in human CEM cells assessed as increase in caspase-3 activity using Ac-DEVD-AMC as a substrate at 5 uM after 24 hrs by fluorescence microplate reader assay relative to untreated control; type: functional
CCRF-CEM [17] = assay: Induction of apoptosis in human CEM cells assessed as cleavage of PARP at 1 to 5 uM after 24 hrs by Western blot analysis relative to untreated control; type: functional, cell-based

In the case of `COc1ccc(C(=O)OC[C@@H](C)[C@@]2(O)[C@@H](O[C@@H]3OC[C@H](O)[C@H](O[C@@H]4OC[C@@H](O)[C@H](O)[C@H]4OC(=O)c4ccc(OC)cc4)[C@H]3OC(C)=O)C[C@H]3[C@@H]4CC=C5C[C@@H](O)CC[C@]5(C)[C@H]4CC[C@@]32C)cc1`, the Activity (CCRF-CEM [1]) is reported as “Dose-dependent effect”, the IC50 (CCRF-CEM [2]) is reported as 57 nM and the IC50 (HeLa) is reported as 340 nM. For the same compound, the Activity (CCRF-CEM [3]) was “Dose-dependent effect”, the “fold change (FC)” value (CCRF-CEM [4]) was 1.7 and the Activity (CCRF-CEM [5]) was “Dose-dependent effect”. The “fold change (FC)” value (CCRF-CEM [6]) was 2.1, the IC50 [7] was 55 nM and the IC50 (HCT-116) was 5000 nM. The IC50 (MCF7) was 410 nM, the “fold change (FC)” value (CCRF-CEM [8]) was 2.1 and the IC50 (HOS) was 5400 nM. For the same compound, the Activity (CCRF-CEM [9]) was “Dose-dependent effect”, the Activity (CCRF-CEM [10]) was “inactive” and the IC50 (G-361) was 170 nM. The IC50 (BJ) was 39 nM, the Activity (CCRF-CEM [11]) was “inactive” and the Activity (CCRF-CEM [12]) was “Dose-dependent effect”. The “fold change (FC)” value (CCRF-CEM [13]) was 1.7, the “fold change (FC)” value (CCRF-CEM [14]) was 1.8 and the Activity (CCRF-CEM [15]) was “Active”. For the same compound, the IC50 (A549) was 570 nM, the “fold change (FC)” value (CCRF-CEM [16]) was 1.8 and the Activity (CCRF-CEM [17]) was “Active”.
